According to patent publication US4939125A, “Acyl derivatives of urdamycin A, their preparation and their use” (Hoechst Aktiengesellschaft, priority 1986, dated 1990):
≈ marks a conversion by molar mass, not a printed value.

Tests used:
Format in all cases: cell-based
L 1210 leukemia cells [1] = test: In vitro cytostatic activity, colony formation (Hamburger and Salmon), continuous incubation; conditions: L 1210, continuous incubation, 5 to 7 days at 37° C., colonies from 60 μm, carried out 4 times, deviation less than 15%; for IC50: Mus musculus, L1210, read-out: IC50, Strain test, continuous
Protocol: (§1) The experiment was carried out in accordance with the process of Hamburger and Salmon [New Engl. J. Med. 298, 1321-1327 (1978)]. The medium was replaced by McCoy 5A, and the number of cells was reduced to 5×10^2 cells/plate.
A continuous incubation of cells with various concentrations of the test substance from Examples 1 to 5 and 5',3B,4B,4C,8-penta-O-acetylurdamycin A was carried out. The compounds to be tested were applied to the agar plates before plating-out the cell cultures. The cell cultures then grew for 5 to 7 days in the incubation in an atmosphere of 5% of CO2, 20% of O2 and 95% relative atmospheric humidity at 37° C. After this time, the number of cell colonies having a diameter from 60 μm was determined (in %) relative to the number of cell colonies which had grown in comparison without test substance.
(§2) The IC50 value for continuous and 1-hour incubation was determined from the dose/action curve.
(§3) In all cases, the experiments were carried out 4 times. The deviation in the results was less than 15%.

L 1210 tumor cells = test: Proliferation experiment (MTT); conditions: carried out 4 times, deviation less than 15%; for IC50: Mus musculus, L1210, L 1210, 72 hours at 37° C., read-out: IC50, Proliferation test
Protocol: L 1210 tumor cells at the exponential growth phase (5×10^3 cells/ml, Roswell Park Memorial Institute (RPMI) medium) were incubated in a microtiter plate with […] recesses for a period of 72 hours at 37° C., 5% of CO2 and 95% relative atmospheric humidity and various concentrations of the test substances from Examples 1 to 5 and also 5',3B,4B,4C,8-penta-O-acetylurdamycin A. After 65 hours, 50 μl of 3-(4,5-dimethylthiazol-2-yl)-2,5-diphenyltetrazolium bromide (MTT) (2.5 mg/ml of MIT in phosphate buffer saline (PBS)) were added. The MTT was reduced by living cells into the red, water-insoluble dyestuff formazan. After a further 7 hours, the supernatant medium was carefully removed. Formazan was dissolved by adding 100 μl of dimethyl sulfoxide per recess and subsequently shaking gently. The extinction of each recess was determined using a multisan 340 CC photometer (Messrs. Flow) at 491 nm. The results were determined from the extinction ratio of cells with test substance to cells without test substance.
as §3

L 1210 leukemia cells [2] = test: In vitro cytostatic activity, colony formation (Hamburger and Salmon), 1-hour incubation; conditions: L 1210, 1 hour incubation at 37° C., then washed and plated, carried out 4 times, deviation less than 15%; for IC50: Mus musculus, L1210, read-out: IC50, Strain test, 1 hour
Protocol: as §1
In the test, the cells were incubated at 37° C. for 1 hour at various concentrations of the test substance. The cells were then washed twice with McCoy 5A solution and subsequently applied to agar plates in accordance with the method of Hamburger and Salmon. The cells were subsequently cultivated as described above, and the number of cell colonies was determined (evaluation as in a).
as §2, §3

Compound	IC50 (L 1210 leukemia cells [1]) [µg/mL]	IC50 (L 1210 tumor cells) [µg/mL]	IC50 (L 1210 leukemia cells [2]) [µg/mL]	IC50, Strain test, continuous (L 1210 leukemia cells [1]) [µg/mL]	IC50, Proliferation test (L 1210 tumor cells; L 1210, 72 hours at 37° C.) [µg/mL]	IC50, Strain test, 1 hour (L 1210 leukemia cells [2]) [µg/mL]
CC(=O)OC1CCC(OC23C(=O)CC(C)(O)CC2(O)C=CC2=C3C(=O)c3ccc(C4CC(OC5CCC(OC6CC(OC(C)=O)C(OC(C)=O)C(C)O6)C(C)O5)C(OC(C)=O)C(C)O4)c(O)c3C2=O)OC1C (stereo not drawn) [5',3B,4B,4C-Tetra-O-acetylu. A, 5',3B,4B,4C-tetra-O-acetylurdamycin A]	0.078 (≈ 0.077 µM)	< 1	0.25 (≈ 0.247 µM)	–	–	–
CCCCCCCC(=O)OC1C(O)CC(OC2CCC(OC3CC(c4ccc5c(c4O)C(=O)C4=C(C5=O)C5(OC6CCC(O)C(C)O6)C(=O)CC(C)(O)CC5(O)C=C4)OC(C)C3O)OC2C)OC1C (stereo not drawn) [4B-O-Octanoylurdamycin A]	–	< 1	0.09 (≈ 0.0927 µM)	–	–	–
CCCCCCCC(=O)OC1CC(OC2CCC(OC3CC(c4ccc5c(c4O)C(=O)C4=C(C5=O)C5(OC6CCC(O)C(C)O6)C(=O)CC(C)(O)CC5(O)C=C4)OC(C)C3O)OC2C)OC(C)C1O (stereo not drawn) [3B-O-Octanoylurdamycin A]	–	< 1	0.26 (≈ 0.268 µM)	–	–	–
CC(=O)OC1CCC(OC23C(=O)CC(C)(O)CC2(O)C=CC2=C3C(=O)c3ccc(C4CC(OC5CCC(OC6CC(O)C(OC(C)=O)C(C)O6)C(C)O5)C(O)C(C)O4)c(O)c3C2=O)OC1C (stereo not drawn) [4B,4C-Di-O-acetylu. A, 4B,4C-di-O-acetylurdamycin A]	0.13 (≈ 0.14 µM)	< 1	0.85 (≈ 0.915 µM)	–	–	–
CC(=O)OC1CC(OC2CCC(OC3CC(c4ccc5c(c4O)C(=O)C4=C(C5=O)C5(OC6CCC(O)C(C)O6)C(=O)CC(C)(O)CC5(O)C=C4)OC(C)C3O)OC2C)OC(C)C1OC(C)=O (stereo not drawn) [3B,4B-Di-O-acetylu. A, 3B,4B-di-O-acetylurdamycin A]	0.11 (≈ 0.118 µM)	< 1	0.35 (≈ 0.377 µM)	–	–	–
CC(=O)Oc1c(C2CC(OC3CCC(OC4CC(OC(C)=O)C(OC(C)=O)C(C)O4)C(C)O3)C(OC(C)=O)C(C)O2)ccc2c1C(=O)C1=C(C2=O)C2(OC3CCC(OC(C)=O)C(C)O3)C(=O)CC(C)(O)CC2(O)C=C1 (stereo not drawn) [Penta-O-acetylu. A, 5',3B,4B,4C,8-penta-O-acetylurdamycin A, reference compound]	0.042 (≈ 0.0398 µM)	< 1	0.12 (≈ 0.114 µM)	–	–	–
CC(=O)OC1CC(OC2CCC(OC3CC(c4ccc5c(c4O)C(=O)C4=C(C5=O)C5(OC6CCC(O)C(C)O6)C(=O)CC(C)(O)CC5(O)C=C4)OC(C)C3O)OC2C)OC(C)C1O (stereo not drawn) [3B-O-Acetylurdamycin A, 3B-O-acetylurdamycin A]	0.28 (≈ 0.316 µM)	< 1	2.2 (≈ 2.48 µM)	–	–	–
CC(=O)Oc1c(C2CC(OC3CCC(OC4CC(OC(C)=O)C(OC(C)=O)C(C)O4)C(C)O3)C(OC(C)=O)C(C)O2)ccc2c1C(=O)C1=C(C2=O)C2(OC3CCC(O)C(C)O3)C(=O)CC(C)(O)CC2(O)C=C1 (stereo not drawn) [5',3B,4B,8-Tetra-O-acetylu. A, 5',3B,4B,8-tetra-O-acetylurdamycin A]	0.075 (≈ 0.074 µM)	< 1	–	–	–	–
3B,4B,8-tri-O-acetylurdamycin A [3B,4B,8-Tri-O-acetylu. A]	–	–	–	0.4	< 1	1.1
